Results from US10214520B2, “Substituted azaspiro(4.5)decane derivatives” (priority 2014, dated 2019).

target: human μ opiate receptor (Homo sapiens, UniProt P35372); assay: μ opiate receptor binding assay with [3H]-naloxone, membrane preparation of CHO-K1 cells (WGA-SPA beads); conditions: mean; read-out: Ki (μ) mean [μm]
Sequence (P35372 whole entry): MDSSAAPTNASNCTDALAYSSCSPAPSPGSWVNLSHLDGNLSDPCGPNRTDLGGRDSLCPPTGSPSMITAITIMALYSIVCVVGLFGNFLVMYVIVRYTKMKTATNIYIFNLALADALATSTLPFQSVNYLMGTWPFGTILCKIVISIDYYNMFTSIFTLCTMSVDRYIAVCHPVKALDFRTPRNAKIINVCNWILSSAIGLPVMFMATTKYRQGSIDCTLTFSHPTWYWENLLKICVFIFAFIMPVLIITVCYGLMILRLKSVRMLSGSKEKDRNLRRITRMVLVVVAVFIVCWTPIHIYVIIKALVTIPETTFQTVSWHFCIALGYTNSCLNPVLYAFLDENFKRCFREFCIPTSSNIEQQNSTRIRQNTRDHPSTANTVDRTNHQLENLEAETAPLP

Row | Structure (SMILES) | Ki [nM]
1 | CN(C)C1(C(=O)c2cccs2)CCC2(CCN(Cc3ccccc3)C2)CC1 (single isomer, unassigned) [Example No. 72, [3-Benzyl-8-(dimethylamino)-3-azaspiro[4.5]decan-8-yl]-thiophen-2-ylmethanone] | 805
2 | CN(C)C1(C(=O)c2cccs2)CCC2(CCN(Cc3ccccc3)C2)CC1 (single isomer, unassigned) [Example No. 71, [3-Benzyl-8-(dimethylamino)-3-azaspiro[4.5]decan-8-yl]-thiophen-2-ylmethanone] | 127
3 | CN(C)C1(c2cccs2)CCC2(CCN(Cc3ccncc3)C2=O)CC1 (stereo not shown) [Example 85] | 260
4 | CN(C)C1(C(=O)c2ccccc2)CCC2(CCN(Cc3ccccc3)C2)CC1 (single isomer, unassigned) [Example No. 70, [3-Benzyl-8-(dimethylamino)-3-azaspiro[4.5]decan-8-yl]-phenylmethanone] | 465
5 | CCCCC1(N(C)C)CCC2(CC1)CC(=O)N(Cc1ccccc1)C2 (stereo not shown) [Example No. 124, 3-Benzyl-8-butyl-8-(dimethylamino)-3-azaspiro[4.5]decan-2-one] | 2970

same assay, conditions: read-out: MOP Ki

Row | Structure (SMILES) | Ki [nM]
6 | COC(=O)c1ccc(N2C[C@]3(CC[C@@](c4ccccc4)(N(C)C)CC3)CC2=O)cc1 [SC-1074, Cis-4-(8-Dimethylamino-3-oxo-8-phenyl-2-azaspiro[4.5]decan-2-yl)-benzoic acid methyl ester] | 420
7 | CN(C)[C@]1(c2ccccc2)CC[C@]2(CC1)CC(=O)N(CC(C)(C)C(=O)NCCc1cncnc1)C2 [SC-1184, Cis-3-(8-Dimethylamino-3-oxo-8-phenyl-2-azaspiro[4.5]decan-2-yl)-2,2-dimethyl-N-(2-pyrimidin-5-yl-ethyl)-propionamide] | 320
8 | CN(C)[C@]1(c2ccccn2)CC[C@]2(CC1)CC(=O)N(CCCC(N)=O)C2 [SC-1013, Cis-4-(8-Dimethylamino-3-oxo-8-pyridin-2-yl-2-azaspiro[4.5]decan-2-yl)-butyramide] | 2430
9 | CN(C)[C@]1(c2cnccn2)CC[C@]2(CC1)CC(=O)N(CCCC(N)=O)C2 [SC-1010, Cis-4-(8-Dimethylamino-3-oxo-8-pyrazin-2-yl-2-azaspiro[4.5]decan-2-yl)-butyramide] | 825

tested on: not given; assay: not given; conditions: not given

Row | melting point [°C] | Structure (SMILES)
10 | 165 to 167 | Cc1ccc(C2(N(C)C)CCC3(CC2)CC(=O)N(C(=O)OC(C)(C)C)C3)s1 (stereo not shown)
